Test results reported in patent US11629171B2, “Beta-hairpin peptidomimetics” (POLYPHOR AG, priority 2017, dated 2023).
Converted amounts (≈) assume the structure as drawn. Where a SMILES comes first, the peptide text is derived from it. Bridges are numbered along the chain shown (N, C = ends). Roman numbers before positions name the chains, in order. [ ]: non-standard residue; d: D form. The star is where a group is joined. Thr(ol) = C[C@@H](O)[C@H](N)CO; Tle = CC(C)(C)[C@H](N)C(=O)O; Hiv = CC(C)[C@H](O)C(=O)O; dDab = NCC[C@@H](N)C(=O)O; hCys = N[C@@H](CCS)C(=O)O; hSer = N[C@@H](CCO)C(=O)O; Dab = NCC[C@H](N)C(=O)O; Dap = NC[C@H](N)C(=O)O; Propionyl = CCC(=O)*; OiPr = CC(C)O*

What was measured:
Assay type in all cases: cell-based
Escherichia coli 926415 = conditions: 926415
Summary of the method: (§1)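 CLSI broth microdilution in cation-adjusted Mueller-Hinton II broth with 0.002% polysorbate 80 (final), inoculum appr. 10^6 CFU/mL, peptides in serial two-fold dilutions. MIC (μg/mL) is the lowest concentration without visible growth after 18-20 h at 35° C.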

[1] = system: Enterobacter cloacae 848840; conditions: 848840
Summary of the method: as §1

[2] = system: Acinetobacter baumannii DSM 30008; conditions: DSM 30008
Summary of the method: as §1

[3] = system: Pseudomonas aeruginosa ATCC 27853; conditions: ATCC 27853
Summary of the method: as §1

[4] = system: Klebsiella pneumoniae 968733; conditions: 968733
Summary of the method: as §1

[5] = system: Klebsiella pneumoniae SSI #3010; conditions: SSI #3010
Summary of the method: as §1

[6] = system: Escherichia coli ATCC 25922; conditions: ATCC 25922
Summary of the method: as §1

[7] = system: Acinetobacter baumannii 872842; conditions: 872842
Summary of the method: as §1

[8] = system: human red blood cells (hRBC); test: Hemolysis; conditions: red cells of human, 1 h, 200
Summary of the method: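 Read-out is supernatant absorbance at 540 nm, normalised to full lysis by 2% Triton X-100 and zero lysis by PBS with 10% water. Peptides (200 μg/mL) were exposed to 20% v/v washed human erythrocytes at 37° C for 1 h under shaking.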

| Structure (SMILES) | MIC (Escherichia coli 926415) [µg/mL] | MIC [1] [µg/mL] | MIC [2] [µg/mL] | MIC [3] [µg/mL] | MIC [4] [µg/mL] | MIC [5] [µg/mL] | MIC [6] [µg/mL] | MIC [7] [µg/mL] | Hemolysis at 200 μg/mL [8] [%] |
| --- | --- | --- | --- | --- | --- | --- | --- | --- | --- |
| CC(C)C[C@@H]1NC(=O)[C@@H](CC(C)C)NC(=O)[C@H](CCN)NC(=O)[C@@H](NC(=O)[C@H](CCN)NC(=O)[C@H](CO)NC(=O)[C@H](CCN)NC(=O)CC[C@@H]2NC(=O)[C@H](CN)NC(=O)[C@H](Cc3ccc(O)cc3)NC(=O)[C@@H](NC(=O)[C@@H](O)C(C)C)CSSC[C@@H](C(=O)N[C@H](CO)[C@@H](C)O)NC(=O)[C@H](C(C)(C)C)NC(=O)[C@H](CO)NC(=O)[C@H](Cc3c[nH]c4ccccc34)NC(=O)[C@H]([C@@H](C)O)NC(=O)[C@@H](CCN)NC2=O)CCNC(=O)[C@H]([C@@H](C)O)NC(=O)[C@H](CCN)NC(=O)[C@H](CCN)NC1=O [Ex. 106] (I: H-[Hiv]CY[Dap]E[dDab]TWS[Tle]C[Thr(ol)] / II: [Dab]S[Dab][Dab][Dab][dL]L[Dab][Dab]T; disulfide I:2-I:11; amide I:5-II:N; lactam II:4-II:C) | 0.125 (≈ 0.0527 µM) | 0.25 (≈ 0.105 µM) | 0.0625 (≈ 0.0263 µM) | 0.125 (≈ 0.0527 µM) | 0.25 (≈ 0.105 µM) | 0.125 (≈ 0.0527 µM) | 0.0625 (≈ 0.0263 µM) | 0.25 (≈ 0.105 µM) | <1 |
| CC(C)C[C@@H]1NC(=O)[C@@H](CC(C)C)NC(=O)[C@H](CCN)NC(=O)[C@@H](NC(=O)[C@H](CN)NC(=O)[C@@H](NC(=O)[C@H](CCN)NC(=O)CC[C@@H]2NC(=O)[C@H](CN)NC(=O)[C@H](Cc3ccc(O)cc3)NC(=O)[C@@H](NC(=O)[C@@H](O)C(C)C)CSSC[C@@H](C(=O)N[C@H](CO)[C@@H](C)O)NC(=O)[C@H](C(C)(C)C)NC(=O)[C@H](CO)NC(=O)[C@H](Cc3c[nH]c4ccccc34)NC(=O)[C@H](CCN)NC(=O)[C@@H](CCN)NC2=O)[C@@H](C)O)CCNC(=O)[C@H]([C@@H](C)O)NC(=O)[C@H](CCN)NC(=O)[C@H](CCN)NC1=O [Ex. 111] (I: H-[Hiv]CY[Dap]E[dDab][Dab]WS[Tle]C[Thr(ol)] / II: [Dab]T[Dap][Dab][Dab][dL]L[Dab][Dab]T; disulfide I:2-I:11; amide I:5-II:N; lactam II:4-II:C) | 0.0625 (≈ 0.0264 µM) | 0.125 (≈ 0.0527 µM) | 0.03125 (≈ 0.0132 µM) | 0.25 (≈ 0.105 µM) | 0.125 (≈ 0.0527 µM) | 0.125 (≈ 0.0527 µM) | 0.125 (≈ 0.0527 µM) | 0.0625 (≈ 0.0264 µM) | <1 |
| CC(C)C[C@@H]1NC(=O)[C@@H](CC(C)C)NC(=O)[C@H](CCN)NC(=O)[C@@H](NC(=O)[C@H](CN)NC(=O)[C@@H](NC(=O)[C@H](CCN)NC(=O)CC[C@@H]2NC(=O)[C@H](CN)NC(=O)[C@H](Cc3ccc(O)cc3)NC(=O)[C@@H](NC(=O)[C@@H](O)C(C)C)CSSC[C@@H](C(=O)N[C@H](CO)[C@@H](C)O)NC(=O)[C@H](C(C)(C)C)NC(=O)[C@H](CO)NC(=O)[C@H](Cc3c[nH]c4ccccc34)NC(=O)[C@H](CCO)NC(=O)[C@@H](CCN)NC2=O)[C@@H](C)O)CCNC(=O)[C@H]([C@@H](C)O)NC(=O)[C@H](CCN)NC(=O)[C@H](CCN)NC1=O [Ex. 112] (I: H-[Hiv]CY[Dap]E[dDab][hSer]WS[Tle]C[Thr(ol)] / II: [Dab]T[Dap][Dab][Dab][dL]L[Dab][Dab]T; disulfide I:2-I:11; amide I:5-II:N; lactam II:4-II:C) | 0.0625 (≈ 0.0263 µM) | 0.125 (≈ 0.0527 µM) | 0.0625 (≈ 0.0263 µM) | 0.125 (≈ 0.0527 µM) | 0.125 (≈ 0.0527 µM) | 0.0625 (≈ 0.0263 µM) | 0.0625 (≈ 0.0263 µM) | 0.0625 (≈ 0.0263 µM) | <1 |
| CC(=O)N[C@H](C(=O)N[C@H]1CSSC[C@@H](C(=O)N[C@@H](CO)C(N)=O)NC(=O)[C@H](C(C)(C)C)NC(=O)[C@H](CO)NC(=O)[C@H](Cc2c[nH]c3ccccc23)NC(=O)[C@H](CO)NC(=O)[C@@H](CCN)NC(=O)[C@H](CCC(=O)N[C@@H](CCN)C(=O)N[C@H](C(=O)N[C@@H](CN)C(=O)N[C@H]2CCNC(=O)[C@H]([C@@H](C)O)NC(=O)[C@H](CCN)NC(=O)[C@H](CCN)NC(=O)[C@H](CC(C)C)NC(=O)[C@@H](CC(C)C)NC(=O)[C@H](CCN)NC2=O)[C@@H](C)O)NC(=O)[C@H](CN)NC(=O)[C@H](Cc2ccc(O)cc2)NC1=O)C(C)C [Ex. 117] (I: Ac-VCY[Dap]E[dDab]SWS[Tle]CS-NH2 / II: [Dab]T[Dap][Dab][Dab][dL]L[Dab][Dab]T; disulfide I:2-I:11; amide I:5-II:N; lactam II:4-II:C) | 0.0625 (≈ 0.0261 µM) | 0.0625 (≈ 0.0261 µM) | 0.01562 (≈ 0.00651 µM) | 0.125 (≈ 0.0521 µM) | 0.0625 (≈ 0.0261 µM) | 0.0625 (≈ 0.0261 µM) | 0.0625 (≈ 0.0261 µM) | 0.01562 (≈ 0.00651 µM) | 2 |

Continued, in another order:

| MIC (Escherichia coli 926415) [µg/mL] | MIC [1] [µg/mL] | MIC [2] [µg/mL] | MIC [3] [µg/mL] | MIC [4] [µg/mL] | MIC [5] [µg/mL] | MIC [6] [µg/mL] | MIC [7] [µg/mL] | Structure (SMILES) | Hemolysis at 200 μg/mL [8] [%] |
| --- | --- | --- | --- | --- | --- | --- | --- | --- | --- |
| 0.0625 (≈ 0.0259 µM) | 0.0625 (≈ 0.0259 µM) | 0.0625 (≈ 0.0259 µM) | 0.125 (≈ 0.0518 µM) | 0.125 (≈ 0.0518 µM) | 0.0625 (≈ 0.0259 µM) | 0.0625 (≈ 0.0259 µM) | 0.03125 (≈ 0.013 µM) | CCC(=O)N[C@H](C(=O)N[C@H]1CSSC[C@@H](C(=O)N[C@@H](CO)C(N)=O)NC(=O)[C@H](C(C)(C)C)NC(=O)[C@H](CO)NC(=O)[C@H](Cc2c[nH]c3ccccc23)NC(=O)[C@H](CO)NC(=O)[C@@H](CCN)NC(=O)[C@H](CCC(=O)N[C@@H](CCN)C(=O)N[C@H](C(=O)N[C@@H](CN)C(=O)N[C@H]2CCNC(=O)[C@H]([C@@H](C)O)NC(=O)[C@H](CCN)NC(=O)[C@H](CCN)NC(=O)[C@H](CC(C)C)NC(=O)[C@@H](CC(C)C)NC(=O)[C@H](CCN)NC2=O)[C@@H](C)O)NC(=O)[C@H](CN)NC(=O)[C@H](Cc2ccc(O)cc2)NC1=O)C(C)C [Ex. 119] (I: Propionyl-VCY[Dap]E[dDab]SWS[Tle]CS-NH2 / II: [Dab]T[Dap][Dab][Dab][dL]L[Dab][Dab]T; disulfide I:2-I:11; amide I:5-II:N; lactam II:4-II:C) | <1 |
| 0.0625 (≈ 0.0259 µM) | 0.25 (≈ 0.104 µM) | 0.0625 (≈ 0.0259 µM) | 0.125 (≈ 0.0518 µM) | 0.125 (≈ 0.0518 µM) | 0.0625 (≈ 0.0259 µM) | 0.125 (≈ 0.0518 µM) | 0.0625 (≈ 0.0259 µM) | CC(=O)N[C@H](C(=O)N[C@H]1CSSC[C@@H](C(=O)N[C@@H](CO)C(N)=O)NC(=O)[C@H](C(C)(C)C)NC(=O)[C@H](CO)NC(=O)[C@H](Cc2c[nH]c3ccccc23)NC(=O)[C@H](CCN)NC(=O)[C@@H](CCN)NC(=O)[C@H](CCC(=O)N[C@@H](CCN)C(=O)N[C@H](C(=O)N[C@@H](CN)C(=O)N[C@H]2CCNC(=O)[C@H]([C@@H](C)O)NC(=O)[C@H](CCN)NC(=O)[C@H](CCN)NC(=O)[C@H](CC(C)C)NC(=O)[C@@H](CC(C)C)NC(=O)[C@H](CCN)NC2=O)[C@@H](C)O)NC(=O)[C@H](CN)NC(=O)[C@H](Cc2ccc(O)cc2)NC1=O)C(C)C [Ex. 120] (I: Ac-VCY[Dap]E[dDab][Dab]WS[Tle]CS-NH2 / II: [Dab]T[Dap][Dab][Dab][dL]L[Dab][Dab]T; disulfide I:2-I:11; amide I:5-II:N; lactam II:4-II:C) | 1 |
| 0.125 (≈ 0.0518 µM) | 0.125 (≈ 0.0518 µM) | 0.0625 (≈ 0.0259 µM) | 0.125 (≈ 0.0518 µM) | 0.25 (≈ 0.104 µM) | 0.125 (≈ 0.0518 µM) | 0.0625 (≈ 0.0259 µM) | 0.0625 (≈ 0.0259 µM) | CC(=O)N[C@H](C(=O)N[C@H]1CCSSC[C@@H](C(=O)N[C@@H](CO)C(N)=O)NC(=O)[C@H](C(C)(C)C)NC(=O)[C@H](CO)NC(=O)[C@H](Cc2c[nH]c3ccccc23)NC(=O)[C@H](CO)NC(=O)[C@@H](CCN)NC(=O)[C@H](CCC(=O)N[C@@H](CCN)C(=O)N[C@H](C(=O)N[C@@H](CN)C(=O)N[C@H]2CCNC(=O)[C@H]([C@@H](C)O)NC(=O)[C@H](CCN)NC(=O)[C@H](CCN)NC(=O)[C@H](CC(C)C)NC(=O)[C@@H](CC(C)C)NC(=O)[C@H](CCN)NC2=O)[C@@H](C)O)NC(=O)[C@H](CN)NC(=O)[C@H](Cc2ccc(O)cc2)NC1=O)C(C)C [Ex. 121] (I: Ac-V[hCys]Y[Dap]E[dDab]SWS[Tle]CS-NH2 / II: [Dab]T[Dap][Dab][Dab][dL]L[Dab][Dab]T; disulfide I:2-I:11; amide I:5-II:N; lactam II:4-II:C) | <1 |
| 4 (≈ 1.64 µM) | 2 (≈ 0.819 µM) | 0.25 (≈ 0.102 µM) | 0.5 (≈ 0.205 µM) | 2 (≈ 0.819 µM) | 0.5 (≈ 0.205 µM) | 0.25 (≈ 0.102 µM) | 1 (≈ 0.41 µM) | CC(=O)N[C@H](C(=O)N[C@H]1CSSC[C@@H](C(=O)N[C@@H](CO)C(=O)OC(C)C)NC(=O)[C@H](C(C)(C)C)NC(=O)[C@H](CO)NC(=O)[C@H](Cc2c[nH]c3ccccc23)NC(=O)[C@H](CO)NC(=O)[C@@H](CCN)NC(=O)[C@H](CCC(=O)N[C@@H](CCN)C(=O)N[C@H](C(=O)N[C@@H](CN)C(=O)N[C@H]2CCNC(=O)[C@H]([C@@H](C)O)NC(=O)[C@H](CCN)NC(=O)[C@H](CCN)NC(=O)[C@H](CC(C)C)NC(=O)[C@@H](CC(C)C)NC(=O)[C@H](CCN)NC2=O)[C@@H](C)O)NC(=O)[C@H](CN)NC(=O)[C@H](Cc2ccc(O)cc2)NC1=O)C(C)C [Ex. 122] (I: Ac-VCY[Dap]E[dDab]SWS[Tle]CS-OiPr / II: [Dab]T[Dap][Dab][Dab][dL]L[Dab][Dab]T; disulfide I:2-I:11; amide I:5-II:N; lactam II:4-II:C) | 1 |
